Laboratory results: patent US20220409643A1, “ROR Gamma T Inhibitors and Topical Uses Thereof” (Dermira, inc., priority 2019, published 2022)

Each compound was assayed on IL17A (assay: skin Resident Immune Cell Assay (sRICA), Th17 model, IL17A protein in media). Conditions: 100 uM solution in 1% DMSO/OD applied topically to human skin; media collected 24 hours after Th17 activation.
Type: cell-based
Experimental: A skin Resident Immune Cell Assay (sRICA) was used to test compounds for reduction of IL-17A protein upregulation in the Th17 sRICA model. In this model, human surgical skin waste was cultured in a transwell system, with the dermis in contact with cell culture media and the stratum corneum exposed to air. To perform the assay, each human skin sample was defatted and dermatomed to 750μm. Next, 8 mm punch biopsies were obtained and placed in a membrane transwell. The transwells were inserted into culture wells with complete media, and a cocktail of cytokines and antibodies were added to promote skin resident immune cell polarization.
RORγt inhibitors were prepared as a 100 uM solution in 1% DMSO/OD. […] of the prepared topical solution was applied to sRICA wells prepared for topical drug evaluation. Drugs were allowed to penetrate the skin overnight, for up to 24 hours prior to Th17 activation. Media was collected 24 hours after Th17 activation for IL17A protein assessment. IL17A protein was evaluated using the Quanterix IL17A detection kit on the SiMoA platform (via CRO Translational Biosciences). There was significant upregulation of IL17A with Th17 activation. Each study was normalized to the % max of IL17A production (i.e. the average IL17A concentration of Th17 activated skin alone) was set to 100%, all other values (untreated no activation and treated samples) were obtained as a percentage of this. […]

Compared with `COc1ccc2c(c1)CCN(C(=O)Cc1cc(O)no1)[C@H]2C(=O)Nc1cc(F)c(C(C)(C)COCC2CC2)c(F)c1` [(1R)-N-(4-(1-(cyclopropyl-methoxy)-2-methylpropan-2-yl)-3,5-difluorophenyl)-2-((3-hydroxy-1,2-oxazol-5-yl)acetyl)-6-methoxy-1,2,3,4-tetrahydro-isoquinoline-1-carboxamide], `CCOCC(C)(C)c1c(F)cc(NC(=O)[C@H]2c3ccc(OC)cc3CCN2C(=O)Cc2cc(O)no2)cc1F` [(1R)-N-(4-(1-ethoxy-2-methylpropan-2-yl)-3,5-difluorophenyl)-2-((3-hydroxy-1,2-oxazol-5-yl)acetyl)-6-methoxy-1,2,3,4-tetrahydro-isoquinoline-1-carboxamide] is lower in inhibition at 100 µM: 61.7% for the first, 54.9% for the second.

Going from `CCOCC(C)(C)c1c(F)cc(NC(=O)[C@H]2c3ccc(OC)cc3CCN2C(=O)c2cc(O)no2)cc1F` [(1R)-N-(4-(1-ethoxy-2-methylpropan-2-yl)-3,5-difluorophenyl)-2-((3-hydroxy-1,2-oxazol-5-yl)carbonyl)-6-methoxy-1,2,3,4-tetrahydro-isoquinoline-1-carboxamide] to `COc1ccc2c(c1)CCN(C(=O)Cc1cc(O)no1)[C@H]2C(=O)Nc1cc(F)c(C(C)(C)C)c(F)c1` [(1R)-N-(4-tert-butyl-3,5-difluorophenyl)-2-((3-hydroxy-1,2-oxazol-5-yl)acetyl)-6-methoxy-1,2,3,4-tetrahydroisoquinoline-1-carboxamide], the inhibition at 100 µM falls from 56.1% to -10.9%.

Going from `COc1ccc2c(c1)CCN(C(=O)Cc1cc(O)no1)[C@H]2C(=O)Nc1ccc(C(C)(C)C)c(F)c1` [(1R)-N-(4-tert-butyl-3-fluorophenyl)-2-((3-hydroxy-1,2-oxazol-5-yl)acetyl)-6-methoxy-1,2,3,4-tetrahydroisoquinoline-1-carboxamide] to `COCc1ccc2c(c1)CCN(C(=O)Cc1cc(O)no1)[C@H]2C(=O)Nc1ccc(C(C)(C)C)c(F)c1` [(1R)-N-(4-tert-butyl-3-fluorophenyl)-2-((3-hydroxy-1,2-oxazol-5-yl)acetyl)-6-methoxymethyl-1,2,3,4-tetrahydroisoquinoline-1-carboxamide], the inhibition at 100 µM rises from 23.6% to 60.8%.

Compared with `COCc1ccc2c(c1)CCN(C(=O)Cc1cc(O)no1)[C@H]2C(=O)Nc1cc(F)c2c(c1)CCC2(C)C` [(1R)-N-(7-fluoro-1,1-dimethyl-2,3-dihydro-1H-inden-5-yl)-2-((3-hydroxy-1,2-oxazol-5-yl)acetyl)-6-(methoxymethyl)-1,2,3,4-tetrahydroisoquinoline-1-carboxamide], `COc1ccc2c(c1)CCN(C(=O)Cc1cc(O)no1)[C@H]2C(=O)Nc1cc(F)c2c(c1)CCC2(C)C` [(1R)-N-(7-fluoro-1,1-dimethyl-2,3-dihydro-1H-inden-5-yl)-2-((3-hydroxy-1,2-oxazol-5-yl)acetyl)-6-methoxy-1,2,3,4-tetrahydroisoquinoline-1-carboxamide] is lower in inhibition at 100 µM: 50.5% for the first, 33.9% for the second.

Compared with `COCc1ccc2c(c1)CCN(C(=O)c1cc(O)no1)[C@H]2C(=O)Nc1cc(F)c2c(c1)CCC2(C)C` [(1R)-N-(7-fluoro-1,1-dimethyl-2,3-dihydro-1H-inden-5-yl)-2-((3-hydroxy-1,2-oxazol-5-yl)carbonyl)-6-(methoxymethyl)-1,2,3,4-tetrahydroisoquinoline-1-carboxamide], `COCc1ccc([C@@H](NC(=O)Cc2cc(O)no2)C(=O)Nc2cc(F)c(C(C)(C)C)c(F)c2)cc1` [(2R)-N-(4-tert-butyl-3,5-difluorophenyl)-2-(((3-hydroxy-1,2-oxazol-5-yl)acetyl)amino)-2-(4-(methoxymethyl)phenyl)acetamide] is lower in inhibition at 100 µM: 59.1% for the first, 26.3% for the second.

First: COCc1ccc([C@@H](NC(=O)Cc2nnc(C)o2)C(=O)Nc2ccc(C(C)(C)C)c(F)c2)cc1 [(2R)-N-(4-tert-butyl-3-fluorophenyl)-2-(4-(methoxymethyl)phenyl)-2-(((5-methyl-1,3,4-oxadiazol-2-yl)acetyl)amino)acetamide]
Second: COCc1ccc([C@@H](NC(=O)Cc2cc(O)no2)C(=O)Nc2ccc(C(C)(C)C)c(F)c2)cc1 [(2R)-N-(4-tert-butyl-3-fluorophenyl)-2-(((3-hydroxy-1,2-oxazol-5-yl)acetyl)amino)-2-(4-(methoxymethyl)phenyl)acetamide]
The inhibition at 100 µM of the first is lower: 62% for the first, 68.1% for the second.

Same assay, conditions: Homo sapiens, 24 h, 100 uM solution in 1% DMSO/OD applied topically to human skin; media collected 24 hours after Th17 activation

First: COCc1ccc([C@@H](NC(=O)Cn2ccc(=O)[nH]c2=O)C(=O)Nc2ccc([Si](C)(C)C)c(F)c2)cc1 [(2R)-2-(((2,4-dioxo-3,4-dihydropyrimidin-1(2H)-yl)acetyl)amino)-N-(3-fluoro-4-(trimethylsilyl)phenyl)-2-(4-(methoxymethyl)phenyl)acetamide]
Second: COCc1ccc([C@@H](NC(=O)CN2C(=O)CNC2=O)C(=O)Nc2ccc([Si](C)(C)C)c(F)c2)cc1 [(2R)-2-(((2,5-dioxoimidazolidin-1-yl)acetyl)amino)-N-(3-fluoro-4-(trimethylsilyl)phenyl)-2-(4-(methoxymethyl)phenyl)acetamide]
The inhibition at 100 µM of the first is higher: 68.6% for the first, 36.3% for the second.

First: COCc1ccc([C@@H](NC(=O)Cc2nnc(C)o2)C(=O)Nc2cc(F)c([Si](C)(C)C)cc2F)cc1 [(2R)-N-(2,5-difluoro-4-(trimethylsilyl)phenyl)-2-(4-(methoxymethyl)phenyl)-2-(((5-methyl-1,3,4-oxadiazol-2-yl)acetyl)amino)acetamide]
Second: COCc1ccc([C@@H](NC(=O)Cc2nnc(C)o2)C(=O)Nc2cc(F)c([Si](C)(C)C)c(F)c2)cc1 [(2R)-N-(3,5-difluoro-4-(trimethylsilyl)phenyl)-2-(4-(methoxymethyl)phenyl)-2-(((5-methyl-1,3,4-oxadiazol-2-yl)acetyl)amino)acetamide]
The inhibition at 100 µM of the first is higher: 75.7% for the first, 60.8% for the second.

First: COCc1ccc([C@@H](NC(=O)Cn2nc(C)ccc2=O)C(=O)Nc2cc(F)c([Si](C)(C)C)c(F)c2)cc1 [(2R)-N-(3,5-difluoro-4-(trimethylsilyl)phenyl)-2-(4-(methoxymethyl)phenyl)-2-(((3-methyl-6-oxopyridazin-1(6H)-yl)acetyl)amino)acetamide]
Second: COCc1ccc([C@@H](NC(=O)Cn2cnccc2=O)C(=O)Nc2cc(F)c([Si](C)(C)C)c(F)c2)cc1 [(2R)-N-(3,5-difluoro-4-(trimethylsilyl)phenyl)-2-(4-(methoxymethyl)phenyl)-2-(((6-oxopyrimidin-1(6H)-yl)acetyl)amino)acetamide]
The inhibition at 100 µM of the first is lower: 38.7% for the first, 80% for the second.

First: COCc1ccc([C@@H](NC(=O)Cc2cc(O)no2)C(=O)Nc2cc(F)c([Si](C)(C)C)c(F)c2)cc1 [(2R)-N-(3,5-difluoro-4-(trimethylsilyl)phenyl)-2-(((3-hydroxy-1,2-oxazol-5-yl)acetyl)amino)-2-(4-(methoxymethyl)phenyl)acetamide]
Second: COCc1ccc([C@@H](NC(=O)Cc2nnc(C)o2)C(=O)Nc2ccc([Si](C)(C)C)c(F)c2)cc1 [(2R)-N-(3-fluoro-4-(trimethylsilyl)phenyl)-2-(4-(methoxymethyl)phenyl)-2-(((5-methyl-1,3,4-oxadiazol-2-yl)acetyl)amino)acetamide]
The inhibition at 100 µM of the first is higher: 53.9% for the first, 35.5% for the second.

For `COCc1ccc([C@@H](NC(=O)CS(C)(=O)=O)C(=O)Nc2ccc([Si](C)(C)C)c(F)c2)cc1` [(2R)-N-(3-fluoro-4-(trimethylsilyl)phenyl)-2-(4-(methoxymethyl)phenyl)-2-(((methylsulfonyl)acetyl)amino)acetamide], the inhibition at 100 µM was 31.3%.
